Measurements: patent US7169568B2, “Method for screening molecules that exert a neurotrophic effect through activation of neurotrophin receptors” (New York University, priority 2000, dated 2007)

Experiments:
TrkA [1] = biological target: T1, TrkA (Homo sapiens, UniProt P04629); assay: 125I-NGF equilibrium binding, PC12 cells stably overexpressing TrkA; set-up: expressed in transfected cells; settings: for Displacement of 125I-NGF binding: PC12 cells overexpressing TrkA, adenosine 1 mM, CGS 21680 1 μM; for Specific Binding of 125I-NGF: 30 minutes at 25° C., control 14316 +/− 350
Method: (§1) ^125I-NGF Binding Analysis. For equilibrium binding studies, ^125I-NGF was prepared as described previously (Hempstead et al, 1989). PC12 cells stably overexpressing TrkA (2×10^5 cells) and HEK 293 cells expressing TrkA (2×10^5) were incubated with ^125I-NGF in the absence and presence of adenosine compounds for 30 minutes at 25° C. The cells were then washed twice with PBS, and ^125I-NGF stripped with an acid solution (0.2 M acetic acid, 0.5 M NaCl). Nonspecific binding was assessed by adding unlabeled NGF at a final concentration of 1000 ng/ml and represented less than 20% of total binding. Specific binding was defined as total binding minus nonspecific binding. All conditions were carried out in triplicate and SEM calculated.
Target sequence in this assay (P04629 33-796): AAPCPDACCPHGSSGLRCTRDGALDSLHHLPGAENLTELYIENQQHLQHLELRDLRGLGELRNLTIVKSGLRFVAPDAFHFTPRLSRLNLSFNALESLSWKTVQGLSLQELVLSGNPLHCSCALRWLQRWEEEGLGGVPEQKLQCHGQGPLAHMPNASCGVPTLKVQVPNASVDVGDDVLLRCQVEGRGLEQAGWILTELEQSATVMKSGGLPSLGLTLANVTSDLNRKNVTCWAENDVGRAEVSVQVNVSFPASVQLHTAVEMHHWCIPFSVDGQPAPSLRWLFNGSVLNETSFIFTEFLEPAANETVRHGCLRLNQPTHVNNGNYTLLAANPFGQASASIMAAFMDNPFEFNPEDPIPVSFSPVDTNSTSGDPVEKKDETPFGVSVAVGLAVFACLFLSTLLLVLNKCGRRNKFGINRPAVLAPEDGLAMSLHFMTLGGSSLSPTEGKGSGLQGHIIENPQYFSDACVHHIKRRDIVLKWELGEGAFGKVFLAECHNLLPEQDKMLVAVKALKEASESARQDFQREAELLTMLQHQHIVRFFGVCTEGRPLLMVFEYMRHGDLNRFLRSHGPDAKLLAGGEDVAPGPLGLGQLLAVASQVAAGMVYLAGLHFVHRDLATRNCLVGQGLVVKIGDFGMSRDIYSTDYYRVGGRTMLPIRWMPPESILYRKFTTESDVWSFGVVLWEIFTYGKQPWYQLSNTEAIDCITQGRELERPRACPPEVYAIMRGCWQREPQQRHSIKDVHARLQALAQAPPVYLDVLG

TrkA [2] = biological target: T1, TrkA; assay: 125I-NGF equilibrium binding, HEK 293 cells expressing TrkA; set-up: expressed in transfected cells; host or cells: HEK 293 cells; settings: for Specific Binding of 125I-NGF: 293/TrkA, 1 μM, 30 minutes at 25° C., control 39076 +/− 2885; for Displacement of 125I-NGF binding: 293 cells that expressed TrkA, excess concentrations
Method: as §1
Target sequence in this assay (P04629 33-796, species assumed): as the sequence (P04629 33-796) above

Akt = Akt activation in PC12 cells (anti-phospho Akt immunoblot); assay type: cell-based; settings: PC12 cells; adenosine 10 μM; CGS 21680 data not shown
Method: PC12 cells (615) were treated with adenosine (10 μM) for various times in the presence or absence of […] (100 nM) or LY294002 (10 μM). The cells were subsequently harvested in lysis buffer; lysates and immunoprecipitated samples were subsequently immunoblotted with anti-phospho MAP kinase, anti-phospho Akt, and anti-phosphotyrosine. Reprobing with anti-MAP kinase and anti-pan-Trk antibodies was carried out to ensure equal protein loading. To assess the activity of Akt, endogenous Akt can be immunoprecipitated from lysates with anti-Akt and the proteins assayed in Western blots with anti-phospho-Akt antibodies. Use of the anti-Akt antibody versus the anti-phospho-Akt antibody on lysates can give a comparative assessment of the relative level of the enzyme and extent of activation (Kim et al., 2001). […] and Immunoblotting. PC12 cells or PC12-615 cells (Hempstead et al, 1992), were maintained in Dulbecco's Modified Eagle's Medium (DMEM) containing 10% fetal bovine serum (FBS) supplemented with 100 units/ml penicillin, 100 μg/ml streptomycin, and 2 mM glutamine plus 200 μg/ml G418. Cells were placed in low serum medium (1% FBS, 0.5% horse serum) overnight prior to experiments. Cell lysates from PC12, 615 cells, or hippocampal cells were incubated in lysis buffer (1% NP40) for 4 hours to overnight at 4° C. with anti-pan-Trk polyclonal antibody, followed by incubation with protein A-Sepharose beads. Equivalent amounts of protein were analyzed for each condition. The beads' were washed five times with lysis buffer and the immune complexes were boiled in SDS-sample buffer and loaded on sodium dodecyl sulfate-polyacrylamide electrophoresis (SDS-PAGE) gels for immunoblot analysis. The immunoreactive protein bands were detected by ECL reagents based upon enhanced chemiluminescence procedure (Amersham Pharmacia).

TrkB receptors = assay: Trk receptor phosphorylation in primary E17 hippocampal neurons (immunoprecipitation, anti-phosphotyrosine Western blot); assay type: cell-based, rat; settings: two hours
Method: FIGS. 4A and 4B show Western blots on adenosine activation of Trk receptors in hippocampal neurons. Primary cultures of E17 hippocampal neurons were prepared as described in the Materials and Methods of Example 1 and treated with (FIG. 4A) CGS 21680 (10 nM) or BDNF (1 ng/ml) for various times and (FIG. 4B) either adenosine (10 μM), CGS 21680 (10 nM), CPA (10 nM) or BDNF (10 ng/ml) for 2 hr. Activation of TrkA receptors was assessed by immunoprecipitation and Western blotting with anti-phosphotyrosine antibody.
Immunoprotection and Immunoblotting. PC12 cells or PC12-615 cells (Hempstead et al, 1992), were maintained in Dulbecco's Modified Eagle's Medium (DMEM) containing 10% fetal bovine serum (FBS) supplemented with 100 units/ml penicillin, 100 μg/ml streptomycin, and 2 mM glutamine plus 200 μg/ml G418. Cells were placed in low serum medium (1% FBS, 0.5% horse serum) overnight prior to experiments. Cell lysates from PC12, 615 cells, or hippocampal cells were incubated in lysis buffer (1% NP40) for 4 hours to overnight at 4° C. with anti-pan-Trk polyclonal antibody, followed by incubation with protein A-Sepharose beads. Equivalent amounts of protein were analyzed for each condition. The beads' were washed five times with lysis buffer and the immune complexes were boiled in SDS-sample buffer and loaded on sodium dodecyl sulfate-polyacrylamide electrophoresis (SDS-PAGE) gels for immunoblot analysis. The immunoreactive protein bands were detected by ECL reagents based upon enhanced chemiluminescence procedure (Amersham Pharmacia).
Hippocampal Cell Cultures. Dissociated primary cultures of hippocampal neurons from embryonic day 17 (E17) rats were prepared from timed-pregnant Sprague-Dawley rats as described previously (Aibel et al, 1998). Fetuses were removed under sterile conditions and kept in PBS on ice for microscopic dissection of the hippocampus. The meninges were removed and the tissue was placed in Neurobasal media (Gibco BRL). […] Cells were counted and then plated on culture wells coated with 0.01 mg/ml poly-D-lysine overnight. […]

Row | SMILES | Displacement of 125I-NGF binding (TrkA [1]) | Specific Binding of 125I-NGF (TrkA [1]; Pc12, 1 μM) | Specific Binding of 125I-NGF (TrkA [2]) | Displacement of 125I-NGF binding (TrkA [2]) | Activation of Akt (phospho-specific antibody) (Akt) | Phosphorylation of TrkB receptors (TrkB receptors; 10 nM) | Specific Binding of 125I-NGF (TrkA [1]; Pc12, 1 mM) | Phosphorylation of TrkB receptors (TrkB receptors; 10 μM)
1 | CCNC(=O)[C@H]1O[C@@H](n2cnc3c(N)nc(NCCc4ccc(CCC(=O)O)cc4)nc32)[C@H](O)[C@@H]1O [CGS 21680, 2-[(4-(2-carboxyethyl)phenylethyl)]aminoadenosine-5′-N-ethylcarboxamide] | no displacement | 14237 +/− 1055 | 39568 +/− 2032 | did not displace | able to activate Akt | gave rise to phosphorylated TrkB receptors |  | 
2 | Nc1ncnc2c1ncn2[C@@H]1O[C@H](CO)[C@@H](O)[C@H]1O [adenosine] | no displacement |  | 36618 +/− 4185 | did not displace | able to activate Akt |  | 14403 +/− 888 | gave rise to phosphorylated TrkB receptors
